{"source": "patent US10111822B2", "about": "“External dermal composition for anti-ageing and method for producing the same” (Hayashibara Co., Ltd., priority 2012, dated 2018)", "key": {"[1]": {"test_system": "hyaluronic acid", "test": "Hyaluronic acid production in NHEK cells (ELISA)", "type": "cell-based, human", "conditions": "3 days, control 1003 ± 111.6", "from_the_text": "In accordance with “Evaluation Method for Enhancing Hyaluronic acid Synthesis” disclosed in “Evaluation and Experimental Manual for Humectancy, Skin whitening, Anti-wrinkle, and Anti-oxidation”, edited by Hitoshi Masaki, published by Fragrance Journal, pp. 94 to 97, 2012, NHEK cells as a model for typical normal human epidermal cells were suspended in EpiLife medium (pH 7.4), commercialized by Invitrogen Corporation, Calif., USA, inoculated to 12-well microplates at a cell density of 5×10^4 cells/well, and incubated overnight under conditions of 37° C. and 5% v/v CO2. Thereafter, the cell culture medium was replaced with a fresh HuMedia-KG2 medium commercialized by Kurabo Industries Ltd., Osaka, Japan; and “AA2G”, a particulate composition containing anhydrous crystalline ascorbic acid 2-glucoside, commercialized by Hayashibara Co., Ltd., Okayama, Japan, was added to each well to give a final concentration of 0.25, 0.5, or 1 mM, followed by culturing the cells for three days under the conditions of 37° C. and 5% v/v CO2. After completion of the culture, the supernatant in each well was immediately collected and quantified for hyaluronic acid by “Hyaluronan, DuoSet Kit”, product code: DY3614, a product name of a commercialized enzyme-linked immunosorbent assay (ELISA) purchased from R & D Systems, Minneapolis, USA. As a control, there was provided a culture system, where cells are cultured similarly as above except for not adding ascorbic acid 2-glucoside."}, "[2]": {"test_system": "Involucrin", "test": "Expression of proliferation marker protein involucrin in NHEK cells (Western)", "type": "cell-based, human", "conditions": "5 days, control regarded as 50%", "description": "Normal human epidermal keratinocytes from neonatal foreskin (NHEK cells) were prepared into 2.5×10^5 cells/mL with EpiLife medium, inoculated to 12-well plates in a volume of 1 mL/well, and cultured at 37° C. for one day under a 5% v/v CO2 condition. Thereafter, each supernatant was removed, and a medium, to which ascorbic acid 2-glucoside had been added to give a final concentration of 300 or 600 μM, was added to the resulting cells in a volume of 1 mL/well, followed by culturing the cells at 37° C. for two days under a 5% v/v CO2 condition. Another cell culture system, which had been similarly cultured in a medium free of ascorbic acid 2-glucoside, was provided as a control. The cells cultured with ascorbic acid 2-glucoside were further added with a medium supplemented with the same concentration of sodium salt of ascorbic acid 2-glucoside as that in the above medium in a volume of 1 mL/well, and cultured for another three days under the same conditions. […] Each of the resulting extract was centrifuged to collect a supernatant, and a part of which was subjected to protein quantification. […]"}}}
{"smiles": "O=C1O[C@H]([C@@H](O)CO)C(O)=C1O[C@H]1O[C@H](CO)[C@@H](O)[C@H](O)[C@H]1O", "note": "[ascorbic acid 2-glucoside, 2-O-α-D-glucosyl-L-ascorbic acid]", "values": [{"measurement": "Hyaluronic acid concentration in culture supernatant", "setting": "[1]; 0.25 mM", "result": "1222 ± 93.6", "unit": "ng/mL"}, {"measurement": "Hyaluronic acid concentration in culture supernatant", "setting": "[1]; 0.5 mM", "result": "1268 ± 125.2", "unit": "ng/mL"}, {"measurement": "Hyaluronic acid concentration in culture supernatant", "setting": "[1]; 1 mM", "result": "1436 ± 216", "unit": "ng/mL"}, {"measurement": "Relative expression level, Involucrin", "setting": "[2]; 300 μM, calibrated with α-Tubulin", "result": 74, "unit": "%"}, {"measurement": "Relative expression level, Involucrin", "setting": "[2]; 600 μM", "result": 84, "unit": "%"}]}
